Active and inactive are the calls of the source.
What was measured:
[1] = luciferase reporter signal suppression in cells – H4 neuroglioma cells, luminescence, dose response (AID 1990); format: functional, cell-based
[2] = Luminescence Cell-Based Dose Response HTS to Identify Inhibitors of 5'UTR Stem-Loop Driven Prion Protein mRNA Translation in H4 Neuroglioblastoma Cells. [Related pubchem assays: 1827 (Project Summary), 1813 (Primary HTS)]; format: functional
[3] = test system: Vero; assay: mammalian cell viability reduction – secondary assay, cytotoxicity control for West Nile virus antiviral project, dose response (AID 1650); format: functional; conditions: Chlorocebus sabaeus
[4] = alpha-synuclein stem-loop luciferase translation blockers – H4 neuroglioma cells, luminescence, confirmation (AID 1988); format: functional, cell-based
[5] = test system: Vero; assay: inhibition of WNV-induced cytopathic effect – cell-based, CPE readout (AID 1621); format: functional; conditions: Chlorocebus sabaeus
[6] = test system: Vero; assay: cells; format: functional; conditions: Chlorocebus sabaeus
[7] = target: Prothrombin (Homo sapiens, UniProt P00734); assay: Thrombin 1536 HTS Dose Response Confirmation. [Related pubchem assays: 1046 (Thrombin 1536 HTS; hits were confirmed in this assay)]; format: functional
[8] = target: Serine/threonine-protein phosphatase PP1-alpha catalytic subunit (Homo sapiens, UniProt P62136); assay: inhibition of protein phosphatase 1 activity – biochemical, fluorescence, dose response (AID 2394)
[9] = target: T1, Serine/threonine-protein phosphatase (Homo sapiens, UniProt Q9BPW0); assay: inhibition of protein phosphatase 5 activity – biochemical, fluorescence, dose response (AID 2395)
T1 sequence (Q9BPW0 whole entry): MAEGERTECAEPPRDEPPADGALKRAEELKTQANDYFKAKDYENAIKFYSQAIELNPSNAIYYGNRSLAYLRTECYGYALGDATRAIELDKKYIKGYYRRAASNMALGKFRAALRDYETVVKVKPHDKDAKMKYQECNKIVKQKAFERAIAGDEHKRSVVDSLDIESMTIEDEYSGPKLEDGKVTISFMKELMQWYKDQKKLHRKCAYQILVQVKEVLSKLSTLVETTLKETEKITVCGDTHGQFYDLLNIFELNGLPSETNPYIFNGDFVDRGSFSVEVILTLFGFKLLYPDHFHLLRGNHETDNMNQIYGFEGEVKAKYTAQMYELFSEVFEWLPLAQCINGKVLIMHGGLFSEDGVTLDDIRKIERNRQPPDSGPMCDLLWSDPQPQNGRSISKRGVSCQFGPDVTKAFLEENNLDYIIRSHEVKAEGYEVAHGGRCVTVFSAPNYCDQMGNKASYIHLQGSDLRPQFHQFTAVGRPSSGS

[10] = target: T2, Aminopeptidase N (Plasmodium falciparum FcB1/Columbia, UniProt O96935); assay: malaria alanyl aminopeptidase activity blockers – biochemical, fluorogenic H-Leu-NHMec substrate, 1536-well (AID 1445); set-up: species or system Plasmodium falciparum 3D7, 3D7
T2 sequence (O96935 whole entry): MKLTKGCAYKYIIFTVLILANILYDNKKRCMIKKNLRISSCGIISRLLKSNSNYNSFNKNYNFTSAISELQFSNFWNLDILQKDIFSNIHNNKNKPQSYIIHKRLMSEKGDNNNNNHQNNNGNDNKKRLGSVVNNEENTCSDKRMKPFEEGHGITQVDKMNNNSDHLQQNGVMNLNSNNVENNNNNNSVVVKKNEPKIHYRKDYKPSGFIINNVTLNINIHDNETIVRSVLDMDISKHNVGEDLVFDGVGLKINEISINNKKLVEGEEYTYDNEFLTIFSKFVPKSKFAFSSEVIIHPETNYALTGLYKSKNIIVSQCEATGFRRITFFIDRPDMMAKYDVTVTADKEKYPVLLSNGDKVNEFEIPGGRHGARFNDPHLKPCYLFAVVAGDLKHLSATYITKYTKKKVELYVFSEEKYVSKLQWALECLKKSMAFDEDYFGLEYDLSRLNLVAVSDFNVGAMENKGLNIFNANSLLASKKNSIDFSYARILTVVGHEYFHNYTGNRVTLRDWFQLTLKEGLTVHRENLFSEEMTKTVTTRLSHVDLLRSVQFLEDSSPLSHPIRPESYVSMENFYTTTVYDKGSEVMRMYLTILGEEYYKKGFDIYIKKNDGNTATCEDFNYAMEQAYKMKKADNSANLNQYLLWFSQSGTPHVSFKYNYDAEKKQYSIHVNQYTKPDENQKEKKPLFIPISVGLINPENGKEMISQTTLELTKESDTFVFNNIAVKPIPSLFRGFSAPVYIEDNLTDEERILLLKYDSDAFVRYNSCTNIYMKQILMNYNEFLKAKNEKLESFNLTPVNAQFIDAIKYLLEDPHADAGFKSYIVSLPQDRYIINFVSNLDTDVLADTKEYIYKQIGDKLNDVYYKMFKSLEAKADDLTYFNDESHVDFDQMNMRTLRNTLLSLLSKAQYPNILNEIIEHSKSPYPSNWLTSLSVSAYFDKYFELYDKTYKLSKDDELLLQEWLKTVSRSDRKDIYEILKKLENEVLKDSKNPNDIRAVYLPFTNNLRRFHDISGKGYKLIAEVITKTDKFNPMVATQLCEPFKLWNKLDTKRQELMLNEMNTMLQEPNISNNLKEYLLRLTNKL

Serine/threonine-protein phosphatase PP1-alpha catalytic subunit, sequence (P62136 whole entry): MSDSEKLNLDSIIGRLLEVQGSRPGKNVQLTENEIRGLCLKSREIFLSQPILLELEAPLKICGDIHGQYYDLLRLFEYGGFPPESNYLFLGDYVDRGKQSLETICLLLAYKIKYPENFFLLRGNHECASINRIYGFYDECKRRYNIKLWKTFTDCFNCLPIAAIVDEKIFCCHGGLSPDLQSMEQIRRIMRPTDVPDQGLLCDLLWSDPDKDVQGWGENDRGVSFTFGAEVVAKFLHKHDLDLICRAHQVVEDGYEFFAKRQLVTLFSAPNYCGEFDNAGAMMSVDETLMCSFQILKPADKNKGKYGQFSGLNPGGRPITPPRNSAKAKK

For `COc1ccc(C2c3ccc4ccccc4c3Oc3ncn(CCN4CCOCC4)c(=N)c32)cc1OC` (stereo unspecified), the EC50 [1] was > 120 µM (not active), the EC50 [2] was 33.4 µM (active) and the CC50 [3] was > 100 µM (active). For the same molecule, the EC50 [4] was 9.75 µM (active), the IC50 [5] was 31.4 µM (active) and the CC50 [6] was 23.8 µM (active).
For `Clc1ccc2oc(-c3ccccc3)cc(=NCCCN3CCOCC3)c2c1`, the IC50 [7] was 24.2 µM (active).
With `COC(=O)CCC(=O)OC1(C)C(=O)C2=CN(CC(C)C)C(c3ccc(OC)cc3)=CC2=C(Br)C1=O` (stereo unspecified) the IC50 [8] was 28.3 µM (not active) and the IC50 [9] was 37.5 µM (not active).
For `COc1ccccc1C1C=C(c2ccc(Cl)cc2)Nc2nc(N3C(=O)CCC3=O)nn21` (stereo unspecified), the IC50 [10] was 31.3 µM (active) and the IC50 [7] was 5.84 µM (active).

Source: ChEMBL document CHEMBL1201862, “PubChem BioAssay data set” (2004)
